# Data reported in the supplement of paper PMC10307832.
# Compound: O=C(Nc1cc(C(F)(F)F)cc(C(F)(F)F)c1)c1cc(Cl)ccc1O [IMD-0354] + O=C(CCCCCCC(=O)Nc1ccccc1)NO [Vorinostat] (partner 1 µM)
# Experiment: relative viability (nuclei count vs DMSO), 5 days (fraction); higher = more cells survive
# Settings: first compound 0.04 µM
# Outline: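 Lung cancer cell lines were seeded in 1536-well plates and dosed by pin tool the next day, with either a single drug or a fixed anchor-drug dose combined with five library-drug doses (not always all listed) spaced in √10 steps. Five days later, one step fixed the cells and stained their nuclei (final 0.05% Triton X-100, 1% formaldehyde, 1 ug/ml Hoechst), and nuclei were counted on 4× images. Relative viability is the nuclei count in treated wells divided by the count in vehicle wells, and each value is the median of duplicate plates.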
row,Cell Line,relative viability
1,H3255,0.743
2,COR-L23,0.419
3,COR-L 105,0.863
4,LOU-NH91,1.03
5,ChaGo-K-1,0.851
6,NCI-H2405,1.24
7,HOP-62,0.573
8,LU99A,0.417
9,BEN,0.586
10,HARA,0.562
11,HCC-78,0.406
12,NCI-H322M,0.901
13,LCLC-97TM1,0.879
14,NCI-H2009,0.705
15,A-427,0.891
16,NCI-H441,0.971

row,Cell Line,relative viability
1,NCI-H661,0.835
2,NCI-H1734,0.879
3,NCI-H460,0.552
4,NCI-H2347,0.636
5,SW 1573,1.08
6,201T,0.958
7,NCI-H1915,0.496
8,HCC-827,0.86
9,LXF-289,0.764
10,NCI-H23,0.664
11,NCI-H647,0.76
12,CAL-12T,1.1
13,NCI-H1651,0.583
14,EPLC-272H,0.285
15,NCI-H2228,0.439
16,NCI-H1355,0.75

# Same assay, conditions: first compound 0.1265 µM
row,Cell Line,relative viability
1,H3255,0.796
2,COR-L23,0.466
3,COR-L 105,0.771
4,LOU-NH91,0.709
5,ChaGo-K-1,0.741
6,NCI-H2405,0.984
7,HOP-62,0.577
8,LU99A,0.498
9,BEN,0.667
10,HARA,0.507
11,HCC-78,0.378
12,NCI-H322M,0.891
13,LCLC-97TM1,0.782
14,NCI-H2009,0.784
15,A-427,0.855
16,NCI-H441,0.82

row,Cell Line,relative viability
1,NCI-H661,0.714
2,NCI-H1734,0.781
3,NCI-H460,1.09
4,NCI-H2347,0.629
5,SW 1573,0.676
6,201T,1.07
7,NCI-H1915,0.509
8,HCC-827,0.841
9,LXF-289,0.735
10,NCI-H23,0.745
11,NCI-H647,0.603
12,CAL-12T,0.912
13,NCI-H1651,0.602
14,EPLC-272H,0.463
15,NCI-H2228,0.542
16,NCI-H1355,0.651

# Same assay, conditions: first compound 0.4 µM
row,Cell Line,relative viability
1,H3255,0.587
2,COR-L23,0.403
3,COR-L 105,0.672
4,LOU-NH91,0.164
5,ChaGo-K-1,0.519
6,NCI-H2405,0.706
7,HOP-62,0.417
8,LU99A,0.375
9,BEN,0.48
10,HARA,0.355
11,HCC-78,0.405
12,NCI-H322M,0.48
13,LCLC-97TM1,0.273
14,NCI-H2009,0.544
15,A-427,0.397
16,NCI-H441,0.416

row,Cell Line,relative viability
1,NCI-H661,0.455
2,NCI-H1734,0.454
3,NCI-H460,0.445
4,NCI-H2347,0.512
5,SW 1573,0.429
6,201T,0.813
7,NCI-H1915,0.339
8,HCC-827,0.706
9,LXF-289,0.612
10,NCI-H23,0.289
11,NCI-H647,0.3
12,CAL-12T,0.411
13,NCI-H1651,0.504
14,EPLC-272H,0.754
15,NCI-H2228,0.434
16,NCI-H1355,0.45

# Same assay, conditions: first compound 1.265 µM
row,Cell Line,relative viability
1,H3255,0.43
2,COR-L23,0.0935
3,COR-L 105,0.679
4,LOU-NH91,0.173
5,ChaGo-K-1,0.244
6,NCI-H2405,0.306
7,HOP-62,0.193
8,LU99A,0.2
9,BEN,0.441
10,HARA,0.265
11,HCC-78,0.407
12,NCI-H322M,0.42
13,LCLC-97TM1,0.0926
14,NCI-H2009,0.253
15,A-427,0.164
16,NCI-H441,0.246

row,Cell Line,relative viability
1,NCI-H661,0.248
2,NCI-H1734,0.301
3,NCI-H460,0.0405
4,NCI-H2347,0.315
5,SW 1573,0.158
6,201T,0.537
7,NCI-H1915,0.334
8,HCC-827,0.264
9,LXF-289,0.261
10,NCI-H23,0.172
11,NCI-H647,0.128
12,CAL-12T,0.25
13,NCI-H1651,0.299
14,EPLC-272H,0.172
15,NCI-H2228,0.425
16,NCI-H1355,0.433

# Same assay, conditions: first compound 4 µM
row,Cell Line,relative viability
1,H3255,0.288
2,COR-L23,0.149
3,COR-L 105,0.378
4,LOU-NH91,0.201
5,ChaGo-K-1,0.255
6,NCI-H2405,0.335
7,HOP-62,0.109
8,LU99A,0.162
9,BEN,0.391
10,HARA,0.072
11,HCC-78,0.31
12,NCI-H322M,0.537
13,LCLC-97TM1,0.123
14,NCI-H2009,0.113
15,A-427,0.162
16,NCI-H441,0.236

row,Cell Line,relative viability
1,NCI-H661,0.2
2,NCI-H1734,0.102
3,NCI-H460,0.0422
4,NCI-H2347,0.382
5,SW 1573,0.0883
6,201T,0.31
7,NCI-H1915,0.115
8,HCC-827,0.29
9,LXF-289,0.137
10,NCI-H23,0.192
11,NCI-H647,0.0744
12,CAL-12T,0.227
13,NCI-H1651,0.168
14,EPLC-272H,0.338
15,NCI-H2228,0.247
16,NCI-H1355,0.231
